The text below walks through data of patent US12006313B1, “7-(4-((5-(benzylideneamino)-2-thioxo-1,3,4-thiadiazol-3(2H)-yl)methyl)piperazin-1-yl)-1-cyclopropyl-6-fluoro-4-oxo-1,4-dihydroquinoline-3-carboxylic acid as an anti-inflammatory and anticancer compound” (KING FAISAL UNIVERSITY, priority 2023, dated 2024).

Data set [1] concerns human prostate cancer cells (PC3). Description: Assessment of cytotoxicity by SRB assay, PC3. Conditions: 72 h. In kind it is cell-based. The method, then:
(§1) The human prostate cancer cells (PC3) and human osteosarcoma cells (MG-63) were obtained from Nawah Scientific Inc. (Mokatam, Cairo, Egypt) and cultured in DMEM (Dulbecco's modified eagle's medium), Gibco, USA, supplemented with fetal bovine serum (FBS) at a concentration of 10% and 100 U/mL of penicillin and streptomycin (PS). The Cells were incubated at 37° C. in a humidified environment that contained 5% CO2.
(§2) Cells were seeded in 96-well plates as aliquots of 100 μL cell suspension and incubated in a complete media for 24 h. afterward, cells were treated with N′-(1-naphthoyloxy)-2-(benzo[d]thiazol-2-yl)acetimidamide at diverse concentrations ranging from 0.01 μM to 100 μM for 72 h. Then, cells were fixed at 4° C. for one hour with 150 μL of 10% trichloroacetic acid (TCA). After washing the cells five times with distilled water, 70 μL of sulforhodamine (SRB) solution (0.4% w/v) was added and incubated for 10 min at room temperature in a dark place. […] Then, 150 μL of Tris pH 10.5 (10 mM) was added, and the absorbance was measured at 540 nm using a BMG LABTECH®-FLUOstar Omega microplate reader (Ortenberg, Germany). Half maximal inhibitory concentrations (IC50) values were calculated for each experiment using GraphPad Prism 6 software. […]
(§3) The inhibition was calculated using the following equation: Inhibition %=100-Average Viability
(The SRB assay estimates cell density from bound dye.)

The subject of data set [2] is human osteosarcoma cells (MG-63). In words: Assessment of cytotoxicity by SRB assay, MG-63. Type of data set: cell-based. Conditions: MG-63 cells, 72 h. As for the experimental part: as §1, §2, §3
For data set [3], the target named is Bovine Serum Albumin (Bos taurus, UniProt P02769). Description: Bovine Serum Albumin assay (BSA), inhibition of protein denaturation. In kind it is biochemical. Conditions: 0.4% w/v BSA, pH 6.4, 72° C. for 10 minutes, turbidity at 660 nm. The method, then:
In vitro-inflammatory activities of the tested samples were determined using a modified method of the BSA assay reported by Williams et al. BSA solution (0.4%, w/v) was prepared in Tris Buffered Saline. The pH was adjusted to 6.4 with glacial acetic acid. Different dilutions of 20, 40, 60, 80, and 100 μg/mL of the stock solutions were added to test tubes containing 1 mL of 0.4%, w/v BSA buffer solution. Both negative (solvent) and positive (aspirin) controls were assayed in a similar manner. The solutions were then heated in a water bath at 72° C. for 10 minutes and cooled for 20 minutes under laboratory conditions. The turbidity of the solutions (level of protein precipitation) was measured at 660 nm in Spectrophotometer (V-770 UV-Visible/NIR Spectrophotometer).
The percentage inhibition of precipitation (protein denaturation) was determined relative to the negative control using the following equation:
[formula] % Anti-Denaturation Activity=% Inhibition of Protein Denaturation=% Anti-inflammatory Activity

Sequence of Bovine Serum Albumin (P02769 25-607): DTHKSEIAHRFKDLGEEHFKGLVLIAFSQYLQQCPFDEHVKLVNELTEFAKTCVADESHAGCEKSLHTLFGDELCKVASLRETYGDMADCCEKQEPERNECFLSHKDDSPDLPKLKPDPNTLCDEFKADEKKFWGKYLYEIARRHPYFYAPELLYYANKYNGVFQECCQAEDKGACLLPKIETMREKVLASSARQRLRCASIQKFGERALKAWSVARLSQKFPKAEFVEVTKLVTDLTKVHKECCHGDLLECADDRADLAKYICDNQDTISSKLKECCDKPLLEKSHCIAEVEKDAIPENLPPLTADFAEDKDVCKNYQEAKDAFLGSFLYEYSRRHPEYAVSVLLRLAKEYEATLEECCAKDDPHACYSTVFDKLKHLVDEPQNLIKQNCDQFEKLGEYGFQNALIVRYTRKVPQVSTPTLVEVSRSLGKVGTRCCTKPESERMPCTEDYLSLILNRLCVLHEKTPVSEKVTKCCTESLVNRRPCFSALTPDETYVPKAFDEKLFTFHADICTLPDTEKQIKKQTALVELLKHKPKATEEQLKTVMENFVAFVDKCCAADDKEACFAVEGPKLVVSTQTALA

Consider `O=C(O)c1cn(C2CC2)c2cc(N3CCN(Cn4nc(/N=C/c5ccccc5)sc4=S)CC3)c(F)cc2c1=O` [7-(4-((5-(benzylideneamino)-2-thioxo-1,3,4-thiadiazol-3(2H)-yl)methyl)piperazin-1-yl)-1-cyclopropyl-6-fluoro-4-oxo-1,4-dihydroquinoline-3-carboxylic acid], for which the melting point lay within 241 to 243 °C. Further, the antiproliferative activity result in data set [1] is “excellent antiproliferative activities”. Further, in data set [2], the antiproliferative activity entry is reported as “excellent antiproliferative activities”. In addition, in data set [3], the “in vitro anti-inflammatory activity (inhibition of protein denaturation)” value is recorded as “considerable anti-inflammatory effect”.

By melting point is commonly meant the temperature, or range, at which the solid turns liquid.
